In ChEMBL document CHEMBL3132798, “Ketorolac beats ketoprofen: lower photodecarboxylation, photohemolysis and phototoxicity” (Medchemcomm, 2013):

Experiments:
[1] = Phototoxicity against human skin fibroblasts at 1 to 100 uM measured after 14 hrs incubation and 24 hrs after initial 14 hrs incubation by MTS assay; settings: skin fibroblast
[2] = Photohemolytic activity against human erythrocytes at 60 uM after 15 mins in presence of 81197.4 mW/m2 of UVA light; format: ADME, cell-based, Erythrocyte
[3] = Photohemolytic activity against human erythrocytes after 15 mins in presence of 81197.4 mW/m2 of UVA light; format: ADME, cell-based; settings: erythrocyte, 0.25 h

| SMILES | Activity [1] | Activity ([2]; erythrocyte, 0.25 h, 60 µM) | Activity [3] | hemolysis at 0.25 h, 60 µM ([2]; erythrocytes, read-out: Activity) [%] |
| --- | --- | --- | --- | --- |
| O=C(c1ccccc1)c1ccc2n1CCC2 | Non-toxic | Non-toxic | – | – |
| CCc1cccc(C(=O)c2ccccc2)c1 | Non-toxic | – | Dose-dependent effect | – |
| CC(C(=O)O)c1cccc(C(=O)c2ccccc2)c1 (configuration not stated) [KETOPROFEN] | Non-toxic | – | – | – |
| O=C(c1ccccc1)c1ccc2n1CCC2C(=O)O (configuration not stated) [KETOROLAC] | Non-toxic | – | – | 20 |
